# Assay results reported in US8796256B2 (Janssen Pharmaceutica NV, priority 2010, dated 2014).
# Biological target: T1, ERR1 (also known as ERR-α or ERR-1) (Homo sapiens, UniProt P11474)
# T1 sequence (P11474 193-421 limits assumed): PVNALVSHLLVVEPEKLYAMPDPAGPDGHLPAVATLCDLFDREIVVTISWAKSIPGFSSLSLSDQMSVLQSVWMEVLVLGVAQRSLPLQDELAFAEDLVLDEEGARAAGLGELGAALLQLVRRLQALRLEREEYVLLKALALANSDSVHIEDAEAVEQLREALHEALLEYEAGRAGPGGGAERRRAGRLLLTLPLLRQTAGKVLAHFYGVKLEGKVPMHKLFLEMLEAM
# Test: TR-FRET assay (disruption of co-activator peptide binding to ERR1 LBD)
# Assay type: biochemical
# Settings: 6 nM 6His-ERR1LBD, 6 nM GST-SRC-2 peptide; average of 3 independent experiments
# Description: Time-Resolved Fluorescence Resonance Energy Transfer (TR-FRET) experiments were performed to examine the functional response of ERR1 (also known as ERR-α or ERR-1) ligands. The TR-FRET assay described herein relied on the conformation of ERR1 for binding to a co-activator peptide: when a test compound binds to ERR1 and alters its conformation, it can disrupt the binding of the co-activator peptide. The components of this homogeneous secondary assay included: the ^6His-tagged-ERR1LBD, a GST-labeled-hSRC2 co-activator polypeptide and a fluorescent donor/acceptor pair from CIS bio international htrf/bioassays (Bedford, Mass.) using both an α-GST Europium (Eu) Cryptate label and an α^6His-XL665 (allophycocyanin) fluorophore.
# For TR-FRET measurements, the reaction was buffered in 25 mM Tris pH 8, 2.5 mM Hepes, 20 mM KCl, 1 mM DTT, and 0.05 mg/mL BSA (delipidated). The final concentrations of reagents were 6 nM of ERR1LBD, 6 nM GST-SRC-2 peptide, 30 nM Eu cryptate, and 7.5 nM a^6His-XL665. Reactions were allowed to reach equilibrium at 25° C. for 4-18 h before collecting data on the Analyst from LJL Biosystems (Molecular Devices Sunnyvale, Calif.). […] Dose response curves were fitted using a hyperbolic equation and the data reported is the average of 3 independent experiments.
row,SMILES,EC50
1,"O=C1S/C(=C\c2ccc3c(cnn3Cc3ccc(Cl)cc3C(F)(F)F)c2)C(=O)N1Cc1ccccn1 [Compound 137, (5Z)-5-({1-[4-Chloro-2-(trifluoromethyl)benzyl]-1H-indazol-5-yl}methylidene)-3-(pyridin-2-ylmethyl)-1,3-thiazolidine-2,4-dione]",66 nM
2,"O=C1S/C(=C\c2ccc3c(cnn3Cc3ccc(C(F)(F)F)cc3C(F)(F)F)c2)C(=O)N1C[C@@H]1COCCN1 [Compound 197, (5Z)-5-({1-[2,4-Bis(trifluoromethyl)benzyl]-1H-indazol-5-yl}methylidene)-3-[(3R)-morpholin-3-ylmethyl]-1,3-thiazolidine-2,4-dione]",65 nM
3,"O=C1S/C(=C\c2ccc3c(cnn3Cc3ccc(Cl)cc3C(F)(F)F)c2)C(=O)N1[C@H]1CCNC[C@H]1F (relative stereo) [Compound 201, (5Z)-5-({1-[4-Chloro-2-(trifluoromethyl)benzyl]-1H-indazol-5-yl}methylidene)-3-(cis-3-fluoropiperidin-4-yl)-1,3-thiazolidine-2,4-dione]",61 nM
4,"O=C1S/C(=C\c2ccc3c(cnn3Cc3ccc(Cl)cc3C(F)(F)F)c2)C(=O)N1CCN1CCC(F)(F)C1 [Compound 116, (5Z)-5-({1-[4-Chloro-2-(trifluoromethyl)benzyl]-1H-indazol-5-yl}methylidene)-3-[2-(3,3-difluoropyrrolidin-1-yl)ethyl]-1,3-thiazolidine-2,4-dione]",180 nM
5,"Cn1cncc1CN1C(=O)S/C(=C\c2ccc3c(cnn3Cc3ccc(Cl)cc3C(F)(F)F)c2)C1=O [Compound 139, (5Z)-5-({1-[4-Chloro-2-(trifluoromethyl)benzyl]-1H-indazol-5-yl}methylidene)-3-[(1-methyl-1H-imidazol-5-yl)methyl]-1,3-thiazolidine-2,4-dione]",16 nM
6,"O=C1S/C(=C\c2ccc3c(cnn3Cc3ccc(C(F)(F)F)cc3C(F)(F)F)c2)C(=O)N1C[C@H]1COCCN1 [Compound 196, (5Z)-5-({1-[2,4-Bis(trifluoromethyl)benzyl]-1H-indazol-5-yl}methylidene)-3-[(3S)-morpholin-3-ylmethyl]-1,3-thiazolidine-2,4-dione]",50 nM
7,"CC(=O)N1CCN(CCN2C(=O)S/C(=C\c3ccc4c(cnn4Cc4ccc(Cl)cc4C(F)(F)F)c3)C2=O)CC1 [Compound 117, (5Z)-3-[2-(4-Acetylpiperazin-1-yl)ethyl]-5-({1-[4-chloro-2-(trifluoromethyl)benzyl]-1H-indazol-5-yl}methylidene)-1,3-thiazolidine-2,4-dione]",86 nM
8,"O=C1S/C(=C\c2ccc3c(cnn3Cc3ccc(Cl)cc3C(F)(F)F)c2)C(=O)N1CCN1CC(O)C1 [Compound 115, (5Z)-5-({1-[4-Chloro-2-(trifluoromethyl)benzyl]-1H-indazol-5-yl}methylidene)-3-[2-(3-hydroxyazetidin-1-yl)ethyl]-1,3-thiazolidine-2,4-dione]",130 nM
9,"CN1CC(N2C(=O)S/C(=C\c3ccc4c(cnn4Cc4ccc(Cl)cc4C(F)(F)F)c3)C2=O)C1 [Compound 133, (5Z)-5-({1-[4-Chloro-2-(trifluoromethyl)benzyl]-1H-indazol-5-yl}methylidine)-3-(1-methylazetidin-3-yl)-1,3-thiazolidine-2,4-dione]",20 nM
10,"CC(C)[C@H](N)CN1C(=O)S/C(=C\c2ccc3c(cnn3Cc3ccc(Cl)cc3C(F)(F)F)c2)C1=O [Compound 162, (5Z)-3-[(2S)-2-Amino-3-methylbutyl]-5-({1-[4-chloro-2-(trifluoromethyl)benzyl]-1H-indazol-5-yl}methylidene)-1,3-thiazolidine-2,4-dione]",32 nM
11,"CC(C)C[C@H](N)CN1C(=O)S/C(=C\c2ccc3c(cnn3Cc3ccc(Cl)cc3C(F)(F)F)c2)C1=O [Compound 53, (5Z)-3-[(2S)-2-Amino-4-methylpentyl]-5-({1-[4-chloro-2-(trifluoromethyl)benzyl]-1H-indazol-5-yl}methylidene)-1,3-thiazolidine-2,4-dione]",39 nM

# Next, values leading:
row,EC50,SMILES
1,70 nM,"O=C(CN1C(=O)S/C(=C\c2ccc3c(c2)c(Cl)nn3Cc2ccc(Cl)cc2C(F)(F)F)C1=O)NS(=O)(=O)N1CCCC1 [Compound 375, 2-[(5Z)-5-({3-Chloro-1-[4-chloro-2-(trifluoromethyl)benzyl]-1H-indazol-5-yl}methylidene)-2,4-dioxo-1,3-thiazolidin-3-yl]-N-(pyrrolidin-1-ylsulfonyl)acetamide]"
2,5 nM,"NC1(CN2C(=O)S/C(=C\c3ccc4c(cnn4Cc4ccc(Cl)cc4C(F)(F)F)c3)C2=O)CCOCC1 [Compound 308, (5Z)-3-[(4-Aminotetrahydro-2H-pyran-4-yl)methyl]-5-({1-[4-chloro-2-(trifluoromethyl)benzyl]-1H-indazol-5-yl}methylidene)-1,3-thiazolidine-2,4-dione]"
3,98 nM,"O=C(O)COCCN1C(=O)S/C(=C\c2ccc3c(cnn3Cc3ccc(Cl)cc3C(F)(F)F)c2)C1=O [Compound 237, {2-[(5Z)-5-({1-[4-Chloro-2-(trifluoromethyl)benzyl]-1H-indazol-5-yl}methylidene)-2,4-dioxo-1,3-thiazolidin-3-yl]ethoxy}acetic acid]"
4,100 nM,"O=C1S/C(=C\c2ccc3c(ccn3Cc3ccc(C(F)(F)F)cc3C(F)(F)F)c2)C(=O)N1CCO [Compound 242, (5Z)-5-[(1-{[2,4-Bis(trifluoromethyl)phenyl]methyl}-1H-indol-5-yl)methylidene]-3-(2-hydroxyethyl)-1,3-thiazolidine-2,4-dione]"
5,361 nM,"O=C1S/C(=C\c2ccc3c(cnn3Cc3ccc(Cl)cc3C(F)(F)F)c2)C(=O)N1CCN1CCN[C@@H](CO)C1 [Compound 282, (5Z)-5-({1-[4-Chloro-2-(trifluoromethyl)benzyl]-1H-indazol-5-yl}methylidene)-3-{2-[(3R)-3-(hydroxymethyl)piperazin-1-yl]ethyl}-1,3-thiazolidine-2,4-dione]"
6,100 nM,"O=C(CN1C(=O)S/C(=C\c2ccc3c(ccn3Cc3ccc(C(F)(F)F)cc3C(F)(F)F)c2)C1=O)N1CCOCC1 [Compound 241, (5Z)-5-[(1-{[2,4-Bis(trifluoromethyl)phenyl]methyl}-1H-indol-5-yl)methylidene]-3-(2-morpholin-4-yl-2-oxoethyl)-1,3-thiazolidine-2,4-dione]"
7,48 nM,"O=C1S/C(=C\c2ccc3c(cnn3Cc3ccc(Cl)cc3C(F)(F)F)c2)C(=O)N1Cc1c[nH]cn1 [Compound 405, (5Z)-5-({1-[4-Chloro-2-(trifluoromethyl)benzyl]-1H-indazol-5-yl}methylidene)-3-(1H-imidazol-4-ylmethyl)-1,3-thiazolidine-2,4-dione]"
8,460 nM,"CN(CCN1C(=O)S/C(=C\c2ccc3c(cnn3Cc3ccc(Cl)cc3C(F)(F)F)c2)C1=O)S(=O)(=O)c1ccc(C(F)(F)F)cc1 [Compound 395, N-{2-[(5Z)-5-({1-[4-Chloro-2-(trifluoromethyl)benzyl]-1H-indazol-5-yl}methylidene)-2,4-dioxo-1,3-thiazolidin-3-yl]ethyl}-N-methyl-4-(trifluoromethyl) benzenesulfonamide]"
9,38 nM,"O=C1S/C(=C\c2ccc3c(cnn3Cc3ccc(Cl)cc3C(F)(F)F)c2)C(=O)N1Cc1nccn1S(=O)(=O)N1CCCC1 [Compound 412, (5Z)-5-({1-[4-Chloro-2-(trifluoromethyl)benzyl]-1H-indazol-5-yl}methylidene)-3-{[1-(pyrrolidin-1-ylsulfonyl)-1H-imidazol-2-yl]methyl}-1,3-thiazolidine-2,4-dione]"
